Patent US20250064773A1, “TARGETING ERO1 ALPHA WITH AURONE DERIVATIVES” (West Virginia University Board of Governors on behalf of …, priority 2021, published 2025)
Like-named read-outs stand apart in the source and are kept apart here.

System: PC-9 non-small cell lung cancer cell line
Experiment: MTT viability assay, PC-9
Type: cell-based
Details: 72 hours
Experimental: We utilized an MTT assay to determine the potency of the compounds for inhibiting cell growth. […] We next asked whether T151742 induced inhibition of cell growth was dependent on ERO1α expression. As shown in FIG. 6C two ERO1α deleted clones in the PC-9 cell line were isolated. Using an MTT assay to determine overall cellar viability, a non-targeted control (scramble), and both ERO1α knockout clones was subjected to treatment with T151742 for 72 hours (See FIG. 6D). […] Though only slight differences were observed between T151742 and EN-460 we tested the effects of these compounds in a clonogenic assay which is a better test for inhibition of self-renewal.
Cell Lines: PC-9 cell line used was obtained from Sigma Aldrich and grown in RPMI 1640 medium with 10% fetal bovine serum and 1% penicillin/streptomycin. HCC4006, U266, MM1.s, and Beas-2B cell lines were obtained from ATCC and cultured in either RPMI 1640 or DMEM with 10% fetal bovine serum and 1% penicillin/streptomycin. All cell lines were also checked for mycoplasma every six months and subjected to short tandem repeat (STR) analysis for cell line validation. CRISPR Cas9: CRISPR Guide RNA 2 targeting ERO1α and CRISPR Guide RNA 4 were purchased from Genscript in the pLentiCRISPR V2 plasmid containing puromycin/ampicillin selection marker. Lentivirus was made from HEK 293T cells by co-transfection with GuideRNA of interest, pVSVG, and pPAX2 plasmids. Lentivirus was collected after 48 hours and concentrated using 40% PEG8000. […] Plate was then read on the BioTek Cytation 5 at 530/590 nm. […] Plate was then read at 570 nm. Treated wells were all compared to DMSO control wells to calculate percent growth inhibition and the IC50 was calculated using GraphPad (log(inhibitor) vs growth inhibition). […] Images were then quantified using ImageJ. […] Cells were aliquoted at 1 million cells per PCR tube in PBS and heated in Bio-Rad T100 thermal cycler at indicated temperatures (RT, 46° C., 48° C., 50° C., 52° C., 54° C., 56°, 58° C., and 60° C.) for 3 minutes and aggregation temperature was determined by western blot analysis. […]

CN(C)c1ccc(/C=C2\Oc3cc(O)ccc3C2=O)cc1 [Compound T151742]
IC50 (read-out: IC50, MTT assay, PC-9): 14.1 ± 3.99 µM
IC50 (non-targeted control (scramble), read-out: IC50, MTT assay, PC-9 WT): 14.1 µM
